Source: patent US20250388576A1, “PYRIDONOPYRIMIDINE DERIVATIVE AS RSK INHIBITOR AND USE THEREOF” (EAST CHINA NORMAL UNIVERSITY, priority 2022, published 2025)

Experiments:
[1] = biological target: RSK4 kinase (Homo sapiens (Human), UniProt Q9UK32); test: In vitro enzyme activity assay (Kinase-Glo), RSK4; format: biochemical; conditions: 10 μM ATP, 30° C., 40 minutes
Description: The experiment for testing the in vitro inhibiting effect of the compound provided in the present invention on the activity of RSK4 kinase is as follows. The method for RSK1-3 was the same as that for RSK4 (Kashem, M. A. et al. J. Biomol. Screen. 12, 70-83):
All enzyme reactions were carried out at 30° C. for 40 minutes. 50 μL of reaction mixture contains 40 mM Tris, pH 7.4, 10 mM MgCl2, 0.1 mg/mL BSA, 1 mM DTT, 10 μM ATP, 0.2 μg/mL kinase, and 100 μM lipid substrate. The compound was diluted in 10% DMSO, and 5 μL of the diluted solution was added to 50 μL of the reaction, so that the final concentration of DMSO in all reactions was 1%. Kinase-Glo reagent was added to the reaction system for detection. Kinase activity was measured by quantifying the amount of ATP remaining in the solution after the kinase reaction. IC50 values were calculated using nonlinear regression, and each experiment was repeated more than twice.

[2] = system: renal cancer cells ACHN; test: Anti-cell proliferation activity (CCK8), ACHN; format: cell-based; conditions: Homo sapiens, 72 hours
Description: (§1) The specific experimental procedure is as follows: cells were digested and centrifuged at 1000 rpm for 3 minutes. The cell density was adjusted to 3×10^4 cells/mL. 3000 cells per well was seeded, and the outermost ring was filled with culture medium. The plate was placed in a 37° C., 5% CO2 incubator overnight to allow cell attachment. The 10 mM stock solution was diluted to 100 μM with the culture medium, and then further diluted in three-fold with the culture medium containing 1% DMSO to prepare eight concentration gradients. 10 μL of the compound was added to each well, and the remaining volume was filled with 10 μL of culture medium containing 1% DMSO. After culturing the cells for 72 hours, 10 μL of CCK8 reagent was added to each well. […] Cell viability (%)=(OD of drug-treated cells−OD of blank)/(OD of control cells−OD of blank)×100%. After the experiment was independently repeated for three times, the variance was calculated and statistical graphs were created to analyze the effect of the drug on cell viability. IC50 values were calculated by fitting with GraphPad Prism software.

[3] = system: esophageal squamous cell carcinoma cells KYSE510; test: Anti-cell proliferation activity (CCK8), KYSE510; format: cell-based; conditions: Homo sapiens, KYSE-510, 72 hours
Description: as §1

[4] = system: esophageal squamous cell carcinoma cells KYSE150; test: Anti-cell proliferation activity (CCK8), KYSE150; format: cell-based; conditions: Homo sapiens, KYSE-150, 72 hours
Description: as §1

[5] = system: esophageal squamous cell carcinoma cells TE10; test: Anti-cell proliferation activity (CCK8), TE10; format: cell-based; conditions: Homo sapiens, TE-10, 72 hours
Description: as §1

Chain of RSK4 kinase (Q9UK32 whole entry): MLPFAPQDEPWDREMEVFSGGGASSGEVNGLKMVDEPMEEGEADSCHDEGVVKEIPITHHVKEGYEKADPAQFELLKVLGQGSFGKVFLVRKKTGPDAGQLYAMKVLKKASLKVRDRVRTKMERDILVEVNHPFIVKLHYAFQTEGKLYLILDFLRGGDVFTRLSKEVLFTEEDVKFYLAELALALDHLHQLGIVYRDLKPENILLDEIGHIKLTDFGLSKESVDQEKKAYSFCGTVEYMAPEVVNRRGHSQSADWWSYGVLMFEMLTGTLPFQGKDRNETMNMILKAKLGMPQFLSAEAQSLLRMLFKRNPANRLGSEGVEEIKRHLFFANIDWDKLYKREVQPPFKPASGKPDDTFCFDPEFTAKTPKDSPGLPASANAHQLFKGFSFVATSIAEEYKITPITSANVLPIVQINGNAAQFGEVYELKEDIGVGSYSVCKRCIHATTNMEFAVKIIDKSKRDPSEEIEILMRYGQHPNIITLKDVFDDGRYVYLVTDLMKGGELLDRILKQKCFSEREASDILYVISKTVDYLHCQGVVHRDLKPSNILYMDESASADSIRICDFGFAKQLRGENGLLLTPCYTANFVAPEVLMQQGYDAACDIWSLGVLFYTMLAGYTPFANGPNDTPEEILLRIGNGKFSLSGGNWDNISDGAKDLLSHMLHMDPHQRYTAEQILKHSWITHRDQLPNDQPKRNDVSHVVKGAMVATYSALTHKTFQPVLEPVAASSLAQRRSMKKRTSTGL

SMILES	IC50 [1] [nM]	other results
Cc1cc(=O)n(C2CCCC2)c2nc(Nc3ccc4[nH]nc(F)c4c3)ncc12 [Compound 012, 8-Cyclopentyl-2-[(3-fluoro-1H-indazol-5-yl)amino]-5-methylpyrido[2,3-d]pyrimidin-7(8H)-one]	280 ± 54	–
Cc1cc(=O)n(C2CCC(F)(F)C2)c2nc(Nc3ccc4c(c3)CC(=O)N4)ncc12 (stereo not drawn) [Compound 015, 8-(3,3-Difluorocyclopentyl)-5-methyl-2-((2-oxoindolin-5-yl)amino)pyrido[2,3-d]pyrimidin-7(8H)-one]	46 ± 4	–
Cc1cc(=O)n(C2CCCC2)c2nc(Nc3cc(F)c(O)c(F)c3)ncc12 [Compound 003, 8-Cyclopentyl-2-((3,5-difluoro-4-hydroxyphenyl)amino)-5-methylpyrido[2,3-d]pyrimidin-7(8H)-one]	12 ± 3	IC50 [2]: 3100 ± 110 nM; IC50 [3]: 3130 ± 1160 nM; IC50 [4]: 4080 ± 1120 nM
Cc1cc(=O)n(C2CCC(F)(F)C2)c2nc(Nc3cnc4[nH]ncc4c3)ncc12 (stereo not drawn) [Compound 017, 2-((1H-pyrazolo[3,4-b]pyridin-5-yl)amino)-8-(3,3-difluorocyclopentyl)-5-methylpyrido[2,3-d]pyrimidin-7(8H)-one]	12 ± 2	–
CC(C)CCN1c2nc(Nc3cc(F)c(O)c(F)c3)ncc2N(C)C(=O)C1C (stereo not drawn) [BI-D1870, reference compound]	–	IC50 [2]: > 10000 nM; IC50 [5]: 3860 ± 760 nM; IC50 [3]: 11700 ± 2580 nM; IC50 [4]: 20200 ± 1560 nM
Cc1cc(=O)n(C2CCCC2)c2nc(Nc3cc(F)c4[nH]ncc4c3)ncc12 [Compound 009, 8-Cyclopentyl-2-((7-fluoro-1H-indazol-5-yl)amino)-5-methylpyrido[2,3-d]pyrimidin-7(8H)-one]	39 ± 8	–
Cc1c(Br)c(=O)n(C2CCCC2)c2nc(Nc3ccc4c(c3)CC(=O)N4)ncc12 [Compound 014, 6-Bromo-8-cyclopentyl-5-methyl-2-(2-oxoindolin-5-ylamino)pyrido[2,3-d]pyrimidin-7(8H)-one]	214 ± 20	–
Cc1c(Br)c(=O)n(C2CCCC2)c2nc(Nc3ccc4[nH]ncc4c3)ncc12 [Compound 011, 2-((1H-indazol-5-yl)amino)-6-bromo-8-cyclopentyl-5-methylpyrido[2,3-d]pyrimidin-7(8H)-one]	44 ± 7	–
Cc1cc(=O)n(C2CCCC2)c2nc(Nc3ccc4c(c3)CC(=O)N4)ncc12 [Compound 007, 8-Cyclopentyl-5-methyl-2-((2-oxoindolin-5-yl)amino)pyrido[2,3-d]pyrimidin-7(8H)-one]	17 ± 6	IC50 [2]: 1940 ± 70 nM; IC50 [3]: 6150 ± 270 nM; IC50 [4]: 4650 ± 2110 nM
Cc1cc(=O)n(C2CCCC2)c2nc(Nc3ccc4[nH]nnc4c3)ncc12 [Compound 004, 2-((1H-benzo[d][1,2,3]triazol-5-yl)amino)-8-cyclopentyl-5-methylpyrido[2,3-d]pyrimidin-7(8H)-one]	3020 ± 673	–
Cc1cc(=O)n(C2CCC(F)(F)C2)c2nc(Nc3cc(F)c4[nH]ncc4c3)ncc12 (stereo not drawn) [Compound 016, 8-(3,3-Difluorocyclopentyl)-2-((7-fluoro-1H-indazol-5-yl)amino)-5-methylpyrido[2,3-d]pyrimidin-7(8H)-one]	13 ± 3	IC50 [2]: 870 ± 370 nM; IC50 [5]: 1700 ± 1430 nM
CC(=O)N(c1cc(F)c(O)c(F)c1)c1ncc2c(C)cc(=O)n(C3CCCC3)c2n1 [Compound 002, N-(8-Cyclopentyl-5-methyl-7-oxo-7,8-dihydropyrido[2,3-d]pyrimidin-2-yl)-N-(3,5-difluoro-4-hydroxyphenyl)acetamide]	139 ± 19	–
Cc1cc(=O)n(C2CCCC2)c2nc(Nc3cnc4[nH]ncc4c3)ncc12 [Compound 013, 2-((1H-pyrazolo[3,4-b]pyridin-5-yl)amino)-8-cyclopentyl-5-methylpyrido[2,3-d]pyrimidin-7(8H)-one]	39 ± 4	–
Cc1cc(=O)n(C2CCCCC2)c2nc(Nc3ccc4[nH]ncc4c3)ncc12 [Compound 019, 2-((1H-indazol-5-yl)amino)-5-methyl-8-(cyclohexyl)pyrido[2,3-d]pyrimidin-7(8H)-one]	86 ± 41	–
Cc1cc(=O)n(C2CCCCCC2)c2nc(Nc3ccc4[nH]ncc4c3)ncc12 [Compound 020, 2-((1H-indazol-5-yl)amino)-5-methyl-8-(cycloheptyl)pyrido[2,3-d]pyrimidin-7(8H)-one]	201 ± 77	–
Cc1cc(=O)n(C2CCCC2)c2nc(Nc3ccc4[nH]c(=O)oc4c3)ncc12 [Compound 008, 6-((8-Cyclopentyl-5-methyl-7-oxo-7,8-dihydropyrido[2,3-d]pyrimidin-2-yl)amino)benzo[d]oxazol-2(3H)-one]	10800 ± 2030	–
Cc1cc(=O)n(C2CCC(O)C2)c2nc(Nc3ccc4[nH]ncc4c3)ncc12 (stereo not drawn) [Compound 018, 2-((1H-indazol-5-yl)amino)-8-(3-hydroxycyclopentyl)-5-methylpyrido[2,3-d]pyrimidin-7(8H)-one]	30 ± 12	–
Cc1cc(=O)n(C2CCCC2)c2nc(Nc3ccc(F)c4[nH]ncc34)ncc12 [Compound 010]	180 ± 16	–
Cc1cc(=O)n(C2CCOC2)c2nc(Nc3ccc4[nH]ncc4c3)ncc12 (stereo not drawn) [Compound 021, 2-((1H-indazol-5-yl)amino)-5-methyl-8-(tetrahydrofuran-3-yl)pyrido[2,3-d]pyrimidin-7(8H)-one]	392 ± 162	–
